Columns and labels:
Type in all cases: cell-based
Marburg virus (MARV) = assay: organism not typed; conditions: Vero, 72 h, read-out: Percent viral inhibition MARV
dengue virus (DENV) = assay: microbe, parasite or virus in culture; conditions: Dengue virus, Vero, 120 h, read-out: Percent viral inhibition DENY
[1] = tested on: Chikungunya virus (CHIKV); assay: microbe, parasite or virus in culture; conditions: Chikungunya virus, Vero, 48 h, read-out: Percent viral inhibition CHKV

## CC(CC1CCN(Cc2cc(Oc3ccc(N4CCN(C)CC4)nc3)nc(-c3cc(Cl)cc(Cl)c3)c2)CC1)C(=O)O (stereo not drawn) [Example 213, 3-(1-((2-(3,5-dichlorophenyl)-6-((6-(4-methylpiperazin-1-yl)pyridin-3-yl)oxy)pyridin-4-yl)methyl)piperidin-4-yl)-2-methylpropanoic acid]
Marburg virus (MARV)
  inhibition at 1 µM: 49.3%
Dengue virus (DENV)
  inhibition at 1 µM: 28%
[1]
  inhibition at 1 µM: 26.5%

## CC(=O)NCC1CCN(Cc2cc(Oc3cnc(N4CCN(C(C)CCC(=O)O)CC4)nc3)nc(-c3cc(Cl)cc(Cl)c3)c2)CC1 (stereo not drawn) [Example 215, 4-(4-(5-((4-((4-(acetamidomethyl)piperidin-1-yl)methyl)-6-(3,5-dichlorophenyl)pyridin-2-yl)oxy)pyrimidin-2-yl)piperazin-1-yl)pentanoic acid]
Marburg virus (MARV)
  inhibition at 1 µM: 56.7%
Dengue virus (DENV)
  inhibition at 1 µM: 24.4%
[1]
  inhibition at 1 µM: 32.5%

## CC(=O)NCC1CCN(Cc2cc(Oc3cnc(N4CCN(C5CC(C(=O)O)C5)CC4)nc3)nc(-c3cc(Cl)cc(Cl)c3)c2)CC1 (stereo not drawn) [Example 216]
Marburg virus (MARV)
  inhibition at 1 µM: 38.5%
Dengue virus (DENV)
  inhibition at 1 µM: 8.34%
[1]
  inhibition at 1 µM: 21.4%

## CNC(=O)NCC1CCN(Cc2cc(Oc3cnc(N4CCN(C5CC(C(=O)O)C5)CC4)nc3)nc(-c3cc(Cl)cc(Cl)c3)c2)CC1 (stereo not drawn) [Example 221, 3-(4-(5-((6-(3,5-dichlorophenyl)-4-((4-((3-methylureido)methyl)piperidin-1-yl)methyl)pyridin-2-yl)oxy)pyrimidin-2-yl)piperazin-1-yl) cyclobutanecarboxylic acid]
Marburg virus (MARV)
  inhibition at 1 µM: 63.2%
Dengue virus (DENV)
  inhibition at 1 µM: 25.9%
[1]
  inhibition at 1 µM: 44.4%

## COC(=O)NCC1CCN(Cc2cc(Oc3cnc(N4CCN(C(C)CCC(=O)O)CC4)nc3)nc(-c3cc(Cl)cc(Cl)c3)c2)CC1 (stereo not drawn) [Example 222, 4-(4-(5-((6-(3,5-dichlorophenyl)-4-((4-(((methoxycarbonyl)amino)methyl)piperidin-1-yl)methyl)pyridin-2-yl)oxy)pyrimidin-2-yl)piperazin-1-yl)pentanoic acid]
Marburg virus (MARV)
  inhibition at 1 µM: 60%
Dengue virus (DENV)
  inhibition at 1 µM: 17.6%
[1]
  inhibition at 1 µM: 25%

## CN1CCN(c2ncc(Oc3cc(CN4CC[C@@H]5[C@H](CC4)[C@H]5CC(=O)O)cc(-c4cc(Cl)cc(Cl)c4)n3)cn2)CC1 [Example 224, 2-((1R,7S,8r)-4-((2-(3,5-dichloro-phenyl)-6-((2-(4-methylpiperazin-1-yl)pyrimidin-5-yl)oxy)pyridin-4-yl)methyl)-4-azabicyclo[5.1.0]octan-8-yl)acetic acid]
Marburg virus (MARV)
  inhibition at 1 µM: 52.3%
Dengue virus (DENV)
  inhibition at 1 µM: 72%
[1]
  inhibition at 1 µM: 33.1%

## CN1CCN(c2ncc(Oc3cc(CN4CCC(OC(C)(C)C(=O)O)CC4)cc(-c4cc(Cl)cc(Cl)c4)n3)cn2)CC1 [Example 225, 2-((1-((2-(3,5-dichlorophenyl)-6-((2-(4-methylpiperazin-1-yl)pyrimidin-5-yl)oxy)pyridin-4-yl)methyl)piperidin-4-yl)oxy)-2-methylpropanoic acid]
Marburg virus (MARV)
  inhibition at 1 µM: 52.3%
Dengue virus (DENV)
  inhibition at 1 µM: 33.3%
[1]
  inhibition at 1 µM: 24.2%

## CN1CCN(c2ncc(Oc3cc(CN4CCC(CC(=O)O)CC4)cc(-c4cc(Cl)cc(Cl)c4)n3)cn2)CC(O)C1 (stereo not drawn) [Example 226, 2-(1-((2-(3,5-dichlorophenyl)-6-((2-(6-hydroxy-4-methyl-1,4-diazepan-1-yl)pyrimidin-5-yl)oxy)pyridin-4-yl)methyl)piperidin-4-yl)acetic acid]
Marburg virus (MARV)
  inhibition at 1 µM: 41.4%
Dengue virus (DENV)
  inhibition at 1 µM: 58.9%
[1]
  inhibition at 1 µM: 26.7%

## CN(C)C1CCN(c2ncc(Oc3cc(CN4CCC(CC(=O)O)CC4)cc(-c4cc(Cl)cc(Cl)c4)n3)cn2)CC1 [Example 227, 2-(1-((2-(3,5-dichlorophenyl)-6-((2-(4-(dimethylamino)piperidin-1-yl)pyrimidin-5-yl)oxy)pyridin-4-yl)methyl)piperidin-4-yl)acetic acid]
Marburg virus (MARV)
  inhibition at 1 µM: 54.5%
Dengue virus (DENV)
  inhibition at 1 µM: 54%
[1]
  inhibition at 1 µM: 40.5%

Source: patent publication US20230011571A1, “SMALL MOLECULE FURIN INHIBITORS FOR TREATING INFECTIOUS DISEASES” (BP Asset V, Inc., priority 2019, published 2023)
